Structures are written as SMILES.

For data set [1], the system named is Trypanosoma cruzi. As to the kind of experiment: microbe, parasite or virus in culture. The format is functional, organism-based, Tulahuen LacZ, Clone C4.
Data set [2] deals with L6. As to the kind of experiment: DNDI: Cytotoxicity against L-6 rat myoblasts from skeletal muscle cells. As to conditions: L6 rat skeletal muscle myoblast cells.
In data set [3] the test system is Trypanosoma cruzi. Put plainly: microbe, parasite or virus in culture. The format is functional, Tulahuen LacZ, Clone C4.
Setting [4] is: Trypanosoma cruzi, Tulahuen LacZ, Clone C4.

For the compound `CC(C)c1ccc(NC(=O)N2CCN(C(c3cncnc3)c3ccc(Cl)cc3F)CC2)cc1` (centres undefined), the half-inhibitory concentration (IC50) in data set [1] (setting [4]) was found to be 6.5 nM; in data set [2], 61900 nM. In data set [3] (setting [4]), this compound came in with a 90% effect concentration (IC90) of 16 nM.

Regarding `OC(c1ccc(Cl)cc1)(c1cccnc1)c1ccccc1Br` (centres undefined), the concentration for half-maximal inhibition (IC50) in data set [1] (setting [4]) stood at 76 nM; in data set [2], 55200 nM. For the same compound, the concentration for an effect of 90% (IC90) in data set [3] (setting [4]) is 172 nM.

Take `OC(c1ccc(Br)cc1)(c1ccc(C(F)(F)F)cc1)c1cccnc1` (centres undefined): the half-maximal inhibitory concentration (IC50) in data set [1] (setting [4]) is 20 nM; in data set [2], 54700 nM. In addition, the 90% effect level in data set [3] (setting [4]) (IC90) was put at 30 nM.

`COc1ccccc1N1CCN(C(c2ccc(C(F)(F)F)cc2)c2cnccn2)CC1` (centres undefined): the results for the IC50 in data set [1] (setting [4]) and in data set [2] were 240 nM and 61700 nM, respectively. Besides, in data set [3] (setting [4]), the IC90 is 420 nM.

As for `COc1ccccc1N1CCN(C(c2ccc(OC(C)C)cc2)c2cccnc2)CC1` (centres undefined), the IC50 in data set [1] (setting [4]) turned out to be 28 nM; in data set [2], 77400 nM. The compound further showed a 90% effect concentration (IC90) in data set [3] (setting [4]) of 90 nM.

Take `O=C(c1ccccc1)N1CCN(C(c2cccnc2)c2ccc(Cl)cc2F)CC1` (centres undefined): the IC50 was 70 nM in data set [1] (setting [4]) and 68600 nM in data set [2]. In data set [3] (setting [4]), this compound registered a 90% effect concentration (IC90) of 220 nM.

Take `Clc1ccc(C(c2cccnc2)c2ccccc2Cl)cc1` (centres undefined): the figures for the IC50 in data set [1] (setting [4]) and in data set [2] were 230 nM and 62600 nM, respectively. The IC90 in data set [3] (setting [4]) was 2570 nM.

Regarding `COc1cccc(C(O)(c2ccc(Cl)cc2)c2cccnc2)c1` (centres undefined), the values for the concentration for half-maximal inhibition (IC50) in data set [1] (setting [4]) and in data set [2] were 61 nM and 85600 nM, respectively. The compound further had an IC90 in data set [3] (setting [4]) of 315 nM.

For `O=C(Nc1ccc(Cl)cc1)N1CCN(C(c2ccc(Cl)cc2)c2cncnc2)CC1` (centres undefined), the values for the half-inhibitory concentration (IC50) in data set [1] (setting [4]) and in data set [2] were 22 nM and 58800 nM, respectively. Moreover, the IC90 in data set [3] (setting [4]) was 65 nM.

Consider `OC(c1ccc(Cl)cc1)(c1cccnc1)c1ccc(F)cc1F` (centres undefined), for which the half-maximal inhibitory concentration (IC50) stood at 16.4 nM in data set [1] (setting [4]) and 70200 nM in data set [2]. Further, the IC90 in data set [3] (setting [4]) came to 29 nM.

`NC(c1ccc(Cl)cc1)(c1cccnc1)c1ccccc1Cl` (centres undefined): the IC50 in data set [1] (setting [4]) stood at 90 nM; in data set [2] it was 76000 nM. In data set [3] (setting [4]), this compound came in with a concentration for an effect of 90% (IC90) of 5050 nM.

In the case of `N#CC(c1ccc(Cl)cc1)(c1cccnc1)c1ccccc1Cl` (centres undefined), the IC50 was determined as 50 nM in data set [1] (setting [4]) and 56800 nM in data set [2]. The compound also displayed an IC90 in data set [3] (setting [4]) of 220 nM.

On to `CC(C)(C)OC(=O)N1CCN(C(c2cncnc2)c2ccc(Cl)cc2F)CC1` (centres undefined), for which the half-inhibitory concentration (IC50) in data set [1] (setting [4]) was determined as 24 nM; in data set [2], 63900 nM. In data set [3] (setting [4]), this compound had an IC90 of 420 nM.

For the compound `Cc1ccc(C(O)(c2ccc(OC(C)C)cc2)c2cccnc2)c(F)c1` (centres undefined), the results for the concentration for half-maximal inhibition (IC50) in data set [1] (setting [4]) and in data set [2] were 3.2 nM and 62600 nM, respectively. Moreover, in data set [3] (setting [4]), the IC90 was 13 nM.

Turning to `CC(C)(C)OC(=O)N1CCN(C(c2ccc(C(F)(F)F)cc2)c2cccnc2)CC1` (centres undefined), the figures for the IC50 in data set [1] (setting [4]) and in data set [2] were 17 nM and 56200 nM, respectively. In addition, in data set [3] (setting [4]), the 90% effect level (IC90) was put at 54 nM.

Consider `O=C(C1CCCCC1)N1CCN(C(c2cccnc2)c2ccc(Cl)cc2F)CC1` (centres undefined), for which the IC50 stood at 28 nM in data set [1] (setting [4]) and 61700 nM in data set [2]. In data set [3] (setting [4]), this compound showed a 90% effect concentration (IC90) of 200 nM.

Take `Fc1cc(Cl)ccc1C(c1cccnc1)N1CCN(c2ccccc2)CC1` (centres undefined): the figures for the half-inhibitory concentration (IC50) in data set [1] (setting [4]) and in data set [2] were 18 nM and 57600 nM, respectively. This compound displayed an IC90 in data set [3] (setting [4]) of 40 nM.

`O=C(Oc1ccccc1)N1CCN(C(c2ccc(Cl)cc2)c2cccnc2)CC1` (centres undefined): the IC50 in data set [1] (setting [4]) was found to be 8 nM; in data set [2], 55700 nM. Besides, the IC90 in data set [3] (setting [4]) is 32 nM.

For `CC(C)(C)C(=O)N1CCN(C(c2ccc(C(F)(F)F)cc2)c2cccnc2)CC1` (centres undefined), the IC50 in data set [1] (setting [4]) amounted to 30 nM; in data set [2], 58600 nM. The compound further gave an IC90 in data set [3] (setting [4]) of 127 nM.

Take `O=S(=O)(C1CCCCC1)N1CCN(C(c2ccc(Cl)cc2)c2cccnc2)CC1` (centres undefined): the half-maximal inhibitory concentration (IC50) in data set [1] (setting [4]) amounted to 10 nM; in data set [2], 55800 nM. For the same compound, the concentration for an effect of 90% (IC90) in data set [3] (setting [4]) stood at 35 nM.

For the compound `CC(C)Oc1ccc(C(O)(c2ccc(OC(C)C)cc2)c2cccnc2)cc1`, the IC50 in data set [1] (setting [4]) is 16 nM; in data set [2], 61400 nM. This compound also had an IC90 in data set [3] (setting [4]) of 25 nM.

In the case of `Clc1ccc(C(c2cccnc2)N2CCN(c3ccccc3)CC2)cc1` (centres undefined), the IC50 in data set [1] (setting [4]) came to 34 nM; in data set [2], 67400 nM. Also, the IC90 in data set [3] (setting [4]) was determined as 84 nM.

On to `OC(c1ccc(C(F)(F)F)cc1)(c1cccnc1)c1cc2ccccc2s1` (centres undefined), for which the IC50 in data set [1] (setting [4]) is 20 nM; in data set [2], 58700 nM. In data set [3] (setting [4]), the 90% effect concentration (IC90) was found to be 110 nM.

For the compound `CC(C)Oc1ccc(C(O)(c2cccnc2)c2ccc(Cl)cc2F)cc1` (centres undefined), the IC50 in data set [1] (setting [4]) worked out at 1.3 nM; in data set [2], 56000 nM. This compound had a concentration for an effect of 90% (IC90) in data set [3] (setting [4]) of 3 nM.

In the case of `CC(C)c1ccc(S(=O)(=O)N2CCN(C(c3ccc(Cl)cc3)c3cccnc3)CC2)cc1` (centres undefined), the IC50 is 12 nM in data set [1] (setting [4]) and 80200 nM in data set [2]. Moreover, the 90% effect concentration (IC90) in data set [3] (setting [4]) came out at 57 nM.

For `FC(F)(F)c1ccc(C(NC2CCN(c3nccs3)CC2)c2cccnc2)cc1` (centres undefined), the IC50 in data set [1] was 9.5 nM; in data set [2], 54900 nM. Besides, in data set [3], the 90% effect concentration (IC90) was found to be 29 nM.

As to `Clc1ccc(C(c2ccc(Cl)cc2)c2cncnc2)cc1`, the results for the concentration for half-maximal inhibition (IC50) in data set [1] (setting [4]) and in data set [2] were 682 nM and 70100 nM, respectively. For the same compound, the IC90 in data set [3] (setting [4]) is 6780 nM.

With `OC(c1ccc(Cl)cc1)(c1cccnc1)c1cccc(C(F)(F)F)c1` (centres undefined), the IC50 amounted to 67 nM in data set [1] (setting [4]) and 60400 nM in data set [2]. In data set [3] (setting [4]), this compound showed a 90% effect concentration (IC90) of 162 nM.
